The target in series [1] is KRAS G12C protein (GDP-KRAS-4B-G12C) (Homo sapiens, UniProt P01116, G12C). As to the kind of experiment: Assay for binding rate to KRAS G12C protein by LC-MS method. Particulars: 3 uM compound. As to the method:
Assay for Binding Rate to KRAS G12C Protein by LC-MS Method
A 10 mM stock solution of a test compound in DMSO was prepared. […] An equal volume of GDP buffer (20 mM Hepes, pH 7.5, 50 mM NaCl, 0.5 mM MgCl2, 10 mM EDTA, 2 mM DTT, GDP) was added to prepare KRASG12C protein loaded with GDP.
After incubation at room temperature for 5 min and 30 min, the reaction was terminated by addition of 5 μL of 5% formic acid. After being centrifuged at 15,000 rpm for 10 min, the mixture was subjected to LC-MS analysis and data analysis.
The percent binding of a test compound to KRASG12C protein was calculated as: Percent binding to KRAS G12C (%)=peak height of conjugate of test compound and KRAS G12C protein/[peak height of conjugate of test compound and KRAS G12C protein+peak height of free KRAS G12C protein] x 100.

Series [2] is described as follows: Plasma protein binding (PPB), RED plate dialysis, rat plasma. Particulars: 37° C., read-out: PPB (% free state) R. The format is in vitro ADME. As for the experimental part: (§1) Human (H), Rat (R) and Mouse (M) Plasma Protein Binding (PPB)
(§2) A test compound and a positive control were each mixed with blank plasma to a final concentration of 1 μM. The mixture was added to a RED plate plasma sample chamber, followed by addition of a dialysis buffer in the buffer chamber. The sample was prepared in triplicate for each compound. The chambers were sealed, and the plate was incubated at 37° C. with shaking at 60 rpm for 5 h. After incubation, the samples were transferred out of the plasma chamber and the buffer chamber and treated as shown in Table 5. After centrifugation at 5594 g for 15 min, the supernatant was collected and analyzed by LC/MS/MS.
(§3) The compound concentration in each sample was expressed in terms of the ratio between peak areas (ratio of peak area of compound to peak area of internal standard) by mass spectrometry analysis, and the plasma protein binding was calculated according to the following formulas.
(§4) % free state=(buffer chamber peak area ratio/plasma chamber peak area ratio)×100%
(§5) % bound state=100%−% free state

The test system of series [3] is ERK phosphorylation in H358 cells. Briefly: In-cell western blot assay for ERK phosphorylation in H358 cells. Type of series: cell-based. Particulars: Homo sapiens, NCI-H358, 10000 nM to 0.051 nM, 3-fold dilution, read-out: H358 p-ERK IC50. As to the method: In-Cell Western Blot Assay for ERK Phosphorylation in H358 Cells
H358 cells were thawed and pre-cultured for 3 days to be in a good state (RPMI 1640+10% FBS+1% P/S). The cells were plated on to a 384-well plate, and a test compound, positive control compounds (AMG510 and isomers thereof) and a negative control were added. The compound was at concentrations from 10000 nM to 0.051 nM. 3-fold dilution was performed. The mixture was well mixed and incubated at 37° C. and 5% CO2. The cells were washed with PBS and suspended in methanol. After another washing with PBS, a blocking buffer was added. After 1 h of blocking at room temperature, a primary antibody mixture (rabbit anti pERK, mouse anti GAPDH) was added, followed by overnight incubation at 4° C. The cells were washed 3 times with PBST, and a secondary antibody mixture (goat anti rabbit 800CW and goat anti mouse 680RD) was added, followed by incubation at room temperature in the dark. The 384-well plate was reversed and centrifuged at 1000 rpm for 1 min, and read on an Odyssey CLx fluorescence imaging system for fluorescence signal values, which was corrected using DMSO and ARS1620. The specific calculation is as follows:
Relative Signal=Signal Value(total channel 800)/Signal Value(total channel 700)
Relative pERK=(Sample−Ave_L)/(Ave_H−Ave_L).
The IC50 values of the compounds were calculated using a four-parameter fitting algorithm, specifically as follows:
Y=Bottom+(Top−Bottom)/(1+10^((Log IC50−X)×HillSlope))

Series [4] in a line: Plasma protein binding (PPB), RED plate dialysis, human plasma. Particulars: 1 μM, 37° C., 5 h, read-out: PPB (% free state) H. The format is in vitro ADME. As to the method:
as §1, §2, §3, §4, §5

A further series relates to plasma proteins. The series is described as above. Type of series: in vitro ADME. Particulars: versus SZ-014138. As to the method:
as §1, §2, §3, §4, §5

A short description of series [5]: Plasma protein binding (PPB), RED plate dialysis, mouse plasma. Type of series: in vitro ADME. Particulars: 37° C., read-out: PPB (% free state) M. As to the method: as §1, §2, §3, §4, §5

Structures are written as SMILES.

Take `C=CC(=O)N1CCN(c2nc(=O)n(-c3c(C(C)C)ncnc3C(C)C)c3c2cc(F)c(-c2c(F)cccc2F)[n+]3[O-])[C@@H](C)C1` [SZ-014053]: in series [1] (5 min incubation at room temperature), the “Binding rate to KRAS G12C protein (LC-MS POC, %) 3 uM/5 min” value was determined as 85.6%. Moreover, in series [1] (30 min incubation at room temperature), the “Binding rate to KRAS G12C protein (LC-MS POC, %) 3 uM/30 min” value stood at 100.0%. For the same compound, the figures for the fraction unbound at 5 h, 1 μM in series [2], in series [4] and in series [5] were 0.616, 0.587 and 0.377, respectively. Further, the IC50 in series [3] turned out to be 41 nM. Further, the “molar concentration not bound to plasma proteins, times higher than reference compound SZ-014138” value in the series with plasma proteins is recorded as “no less than 4 times”.

Usually IC50 stands for the concentration that gives 50% inhibition.
